Where two headings read alike, the source gives them in different places.
How the values were obtained:
[1] = for partition coefficient Kp: hexane/acetonitrile solvent system, examples, Tables A and B; for Kpartition: hexane:acetonitrile (1:1) solvent system, summary table
[2] = Partition of polar organic molecules between hexane and acetonitrile; assay type: physicochemical; conditions: hexane/acetonitrile equal volumes; GC; polar molecule wt%: propionaldehyde 7.5, butyraldehyde 5.2, valeraldehyde 5.5, 3-pentenenitrile 4.7
Procedure: Solutions were prepared containing equal volumes of hexane and acetonitrile. To each solution was added a polar organic molecule identified in Table L below. The mixture was vigorously shaken, then allowed to settle and phase separate. The two phases were then analyzed for content of polar molecule by GC. In Table L, the percent by weight of polar molecule added to the hexane/acetonitrile solvent mixture together with Kpartition is given for various polar molecules.

[3] = Extraction of Texanol from rhodium/Ligand E catalyst: Kpartition and selectivity; assay type: physicochemical
Procedure: . To this mixture was added an equal volume of acetonitrile. The mixture was shaken for 30 minutes, then allowed to settle and phase separate for several hours. The two layers were then separated, and analyzed for content. The partition coefficient Kp of the catalyst is summarized in Table J below, together with the volume ratio of the two phases defined as Vratio=volume of the catalyst containing phase after extraction/volume of the extracting solution phase after extraction, and the selectivity of the extraction defined as Selectivity=Kpartition of catalyst/Kpartition organic material being separated from catalyst.
. […] The mixture was shaken for 30 minutes, then allowed to settle and phase separate over several hours. The two phases were then separated and analyzed for content. In Table K below, partition coefficient Kp of the catalyst and Texanol as well as the volume ratio of the two phases defined as Vratio=volume of the catalyst containing phase after extraction/volume of the extracting solution phase after extraction is summarized.

[4] = DMSO, Examples 18 (B 0.8 wt%, 223 ppm Rh), 19 (C 0.8 wt%, 222 ppm Rh), 21 (E 0.6 wt%, 136 ppm Rh)
[5] = polar solvent W: acetonitrile with 1 wt% water, Examples 24 (B 0.8 wt%, 223 ppm Rh), 25 (E 0.6 wt%, 120 ppm Rh)

With `CCN(CC)P(Oc1c(-c2cc(OC)cc(C(C)(C)C)c2OP(N(CC)CC)N(CC)CC)cc(OC)cc1C(C)(C)C)N(CC)CC` [Ligand K] the “partition coefficient Kp” value [1] was 5 and the Kpartition [1] was 5.
`CCC=O` [propionaldehyde] gave a Kpartition [2] of 9.2.
For `CC(C)(C)c1cc(-c2cc(C(C)(C)C)cc(C(C)(C)C)c2Op2oc3ccccc3c3ccccc3o2)c(Op2oc3ccccc3c3ccccc3o2)c(C(C)(C)C)c1` [Ligand I], the Kpartition [1] was 2.3.
With `CC(C)(C)c1cc(-c2cc(C(C)(C)C)cc(C(C)(C)C)c2Op2oc3ccc(C(C)(C)C)cc3c3cc(C(C)(C)C)ccc3o2)c(Op2oc3ccc(C(C)(C)C)cc3c3cc(C(C)(C)C)ccc3o2)c(C(C)(C)C)c1` [Ligand B] the Kpartition [4] was 124, the Kpartition (acetonitrile, Ligand 0.8 wt%, rhodium 223 ppm, Example 17) was 19 and the Kpartition (hexane/acetonitrile, Ligand 1.5 wt%, rhodium 318 ppm, Example 15) was 34. It also gave a Kpartition [5] of 27 and a Kpartition [1] of 26.
`CCCCCC(C)(C)c1cc(-c2cc(C(C)(C)CCCCC)cc(C(C)(C)CCCCC)c2Op2oc3ccccc3c3ccccc3o2)c(Op2oc3ccccc3c3ccccc3o2)c(C(C)(C)CCCCC)c1` [Ligand D] gave a Kpartition [1] of 116.
With `CCCCCCCCP(CCCCCCCC)CCCCCCCC` [Ligand J] the “partition coefficient Kp” value [1] was over 100 and the Kpartition [1] was over 100.
Work on `CC(C)(C)c1ccc(Op2oc3c(C(C)(C)C)cc(C(C)(C)C)cc3c3cc(C(C)(C)C)cc(C(C)(C)C)c3o2)c(C(C)(C)C)c1` [Ligand M] yielded a Kpartition [1] of 25.
With `CCCC=O` [butyraldehyde] the Kpartition [2] was 3.2.
With `CC=CCC#N` [3-pentenenitrile] the Kpartition [2] was 50.
`CCCCC=O` [valeraldehyde] gave a Kpartition [2] of 2.0.
Work on `CC(C)(C)CC(C)(C)c1cc(-c2cc(C(C)(C)CC(C)(C)C)cc(C(C)(C)CC(C)(C)C)c2Op2oc3ccc(C(C)(C)C)cc3c3cc(C(C)(C)C)ccc3o2)c(Op2oc3ccc(C(C)(C)C)cc3c3cc(C(C)(C)C)ccc3o2)c(C(C)(C)CC(C)(C)C)c1` [Ligand E] yielded a Kpartition [4] of 79, a Kpartition (DMSO, Ligand 0.6 wt%, rhodium 120 ppm, Example 23) of 128 and a Kpartition (acetonitrile, Ligand 0.6 wt%, rhodium 120 ppm, Example 22) of 250. For the same compound, the Kpartition [5] was 352 and the Kpartition [1] was 502.
For `CC(C)C(=O)OCC(C)(C)C(O)C(C)C` (stereo not shown) [Texanol], the “Kpartition Texanol” value ([3]; hexane/acetonitrile, Vratio 5.6, Example 40) was 0.4 and the “Kpartition Texanol” value ([3]; toluene vs acetonitrile containing water 4/1, Example 41) was 96.
`CC(C)(C)c1ccc(OP(Oc2ccccc2-c2ccccc2OP(Oc2ccc(C(C)(C)C)cc2C(C)(C)C)Oc2ccc(C(C)(C)C)cc2C(C)(C)C)Oc2ccc(C(C)(C)C)cc2C(C)(C)C)c(C(C)(C)C)c1` [Ligand F] showed a Kpartition [1] of 100.
In the case of `CC1(c2cc(-c3cc(C4(C)CCCCC4)cc(C4(C)CCCCC4)c3Op3oc4ccccc4c4ccccc4o3)c(Op3oc4ccccc4c4ccccc4o3)c(C3(C)CCCCC3)c2)CCCCC1` [Ligand G], the Kpartition [1] is reported as 19.
`CC(C)(C)CC(C)(C)c1cc(-c2cc(C(C)(C)CC(C)(C)C)cc(C(C)(C)CC(C)(C)C)c2Op2oc3ccccc3c3ccccc3o2)c(Op2oc3ccccc3c3ccccc3o2)c(C(C)(C)CC(C)(C)C)c1` [Ligand C] showed a Kpartition [4] of 42, a Kpartition (Glutaronitrile, Ligand 0.8 wt%, rhodium 222 ppm, Example 20) of 43 and a Kpartition (hexane/acetonitrile, Ligand 0.8 wt%, rhodium 222 ppm, Example 16) of 28. The “Kpartition Ligand C” value ([1]; hexane/DMSO, Example 12) was 68, the “Kpartition Ligand C” value ([1]; hexane/glutaronitrile, Example 13) was 20 and the Kpartition [1] was 38.
With `c1ccc(-c2ccccc2Op2oc3ccccc3c3ccccc3o2)c(Op2oc3ccccc3c3ccccc3o2)c1` [Ligand A, reference compound] the partitioning behavior ([1]; hexane/acetonitrile, Comparative Example A, control) was “non-selective for the hydrocarbon phase” and the Kpartition [1] was 0.04.
`CCC(C)(C)c1cc(-c2cc(C(C)(C)CC)cc(C(C)(C)CC)c2Op2oc3ccccc3c3ccccc3o2)c(Op2oc3ccccc3c3ccccc3o2)c(C(C)(C)CC)c1` [Ligand H] gave a Kpartition [1] of 6.

Source: patent US5952530A, “Separation processes” (Union Carbide Chemicals & Plastics Technology Corporation, priority 1998, dated 1999)
